Laboratory results reported in US6762190B2, “Thienylalanine derivatives as inhibitors of cell adhesion” (Aventis Pharma S.A. Deutschland GmbH Genentech, Inc., priority 1999, dated 2004).

Columns and labels:
[1] = biological target: T1, human vitronectin receptor (VnR) αvβ3 (Homo sapiens, UniProt P05106+P06756); assay: Kistrin binding assay (αvβ3 ELISA test, K/VnR); conditions: inhibition of binding of kistrin to human vitronectin receptor
T1 construct: Human vitronectin receptor was obtained from the human placenta according to the method of Pytela et al; from tissue; host or cells: human placenta
T1 sequence (P06756 31-889 limits assumed): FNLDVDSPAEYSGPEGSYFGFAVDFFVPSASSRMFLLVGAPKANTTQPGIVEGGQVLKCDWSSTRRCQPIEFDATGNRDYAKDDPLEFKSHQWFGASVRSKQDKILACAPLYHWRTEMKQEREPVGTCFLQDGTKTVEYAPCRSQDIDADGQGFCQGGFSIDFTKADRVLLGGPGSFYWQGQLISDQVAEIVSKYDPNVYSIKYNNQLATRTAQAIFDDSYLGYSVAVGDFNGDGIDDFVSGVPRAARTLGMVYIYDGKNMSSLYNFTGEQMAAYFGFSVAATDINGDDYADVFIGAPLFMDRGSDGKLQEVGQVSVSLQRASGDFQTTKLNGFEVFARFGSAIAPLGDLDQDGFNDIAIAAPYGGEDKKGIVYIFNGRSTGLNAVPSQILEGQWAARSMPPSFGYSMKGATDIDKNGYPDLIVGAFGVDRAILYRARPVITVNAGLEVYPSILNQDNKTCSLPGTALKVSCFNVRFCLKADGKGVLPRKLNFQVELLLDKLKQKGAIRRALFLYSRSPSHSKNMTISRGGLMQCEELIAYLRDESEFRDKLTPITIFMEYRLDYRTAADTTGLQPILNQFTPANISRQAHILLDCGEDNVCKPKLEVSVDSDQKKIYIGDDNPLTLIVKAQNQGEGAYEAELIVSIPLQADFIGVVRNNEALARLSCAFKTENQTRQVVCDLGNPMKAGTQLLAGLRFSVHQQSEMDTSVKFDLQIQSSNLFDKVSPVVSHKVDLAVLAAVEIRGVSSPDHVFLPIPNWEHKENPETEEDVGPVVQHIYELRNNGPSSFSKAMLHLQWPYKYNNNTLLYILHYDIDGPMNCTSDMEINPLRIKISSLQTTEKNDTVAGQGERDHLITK
T1 sequence (P06756 891-1048 partner limits assumed): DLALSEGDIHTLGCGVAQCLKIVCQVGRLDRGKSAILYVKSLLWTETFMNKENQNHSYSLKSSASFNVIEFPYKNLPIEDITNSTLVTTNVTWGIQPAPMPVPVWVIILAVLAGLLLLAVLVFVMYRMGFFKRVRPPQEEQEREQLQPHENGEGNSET
T1 sequence (P05106 27-788): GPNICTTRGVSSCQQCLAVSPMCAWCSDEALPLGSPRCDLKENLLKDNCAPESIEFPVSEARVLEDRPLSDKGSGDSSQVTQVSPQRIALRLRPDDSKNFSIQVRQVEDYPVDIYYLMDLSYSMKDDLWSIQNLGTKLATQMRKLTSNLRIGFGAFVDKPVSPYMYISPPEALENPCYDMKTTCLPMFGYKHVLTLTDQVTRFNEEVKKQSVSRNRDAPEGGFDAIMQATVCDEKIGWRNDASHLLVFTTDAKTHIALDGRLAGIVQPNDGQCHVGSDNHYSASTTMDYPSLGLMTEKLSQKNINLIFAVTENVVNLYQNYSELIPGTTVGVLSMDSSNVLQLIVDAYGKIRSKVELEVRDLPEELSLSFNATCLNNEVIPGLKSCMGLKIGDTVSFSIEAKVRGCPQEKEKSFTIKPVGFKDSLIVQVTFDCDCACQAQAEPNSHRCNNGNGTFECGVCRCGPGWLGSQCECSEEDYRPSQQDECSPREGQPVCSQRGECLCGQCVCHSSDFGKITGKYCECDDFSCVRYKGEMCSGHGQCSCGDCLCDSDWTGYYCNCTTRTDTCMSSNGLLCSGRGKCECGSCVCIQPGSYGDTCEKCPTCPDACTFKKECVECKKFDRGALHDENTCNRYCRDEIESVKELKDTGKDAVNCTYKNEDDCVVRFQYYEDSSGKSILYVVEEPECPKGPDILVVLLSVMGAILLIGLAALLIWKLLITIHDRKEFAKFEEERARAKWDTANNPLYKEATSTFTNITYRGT
Source text: The inhibition of the binding of kistrin to human vitronectin receptor (VnR) described below is a test method by which the antagonistic action of the compounds of the invention on the vitronectin receptor αvβ3 can be determined (αvβ3 ELISA Test; the test method is abbreviated as “K/VnR” in the listing of the test results).
Kistrin was purified according to the methods of Dennis et al., as described in Proc. Natl. Acad. Sci. USA 87 (1989) 2471 and Proteins: Structure, Function and Genetics 15(1993)312.
Purification of Human Vitronectin Receptor (αvβ3)
Human vitronectin receptor was obtained from the human placenta according to the method of Pytela et al., Methods Enzymol. 144 (1987) 475. Human vitronectin receptor αvβ3 can also be obtained from some cell lines (for example from 293 cells, a human embryonic kidney cell line) which are cotransfected with DNA sequences for both subunits αv and β3 of the vitronectin receptor. The subunits were extracted with octyl glycoside and then chromatographed through concanavalin A, heparin-Sepharose and S-300.
Murine monoclonal antibodies which are specific for the β3 subunits of the vitronectin receptor, were prepared according to the method of Newman et al., Blood (1985) 227, or by a similar process. The rabbit Fab 2 anti-mouse Fc conjugate to horseradish peroxidase (anti-mouse Fc HRP) was obtained from Pel Freeze (Catalog No. 715 305-1).
The ability of substances to inhibit the binding of kistrin to the vitronectin receptor can be determined using an ELISA test. For this purpose, Nunc 96-well microtiter plates were coated with a solution of kistrin (0.002 mg/ml) according to the method of Dennis et al., as described in Proteins: Structure, Function and Genetics 15 (1993) 312. The plates were then washed twice with PBS/0.05% Tween-20 and blocked by incubating (60 min) with bovine serum albumin (BSA, 0.5%, RIA grade or better) in buffer solution (Tris-HCl (50 mM), NaCl (100 mM), MgCl2 (1 mM), CaCl2 (1 mM), MnCl2 (1 mM), pH 7). Solutions of known inhibitors and of the test substances were prepared in concentrations from 2×10^−12 to 2×10^−6 mol/l in assay buffer (BSA (0.5%, RIA grade or better); Tris-HCl (50 mM), NaCl (100 mM), MgCl2 (1 mM), CaCl2 (1 mM), MnCl2 (1 mM), pH 7). The blocked plates were emptied, and in each case 0.025 ml of this solution which contained a defined concentration (2×10^−12 to 2×10^−6 mol/l) either of a known inhibitor or of a test substance, were added to each well. 0.025 ml of a solution of the vitronectin receptor in assay buffer (0.03 mg/ml) is pipetted into each well of the plate and the plate was incubated at room temperature for 60-180 min on a shaker. In the meantime, a solution (6 ml/plate) of a murine monoclonal antibody specific for the β3 subunit of the vitronectin receptor was prepared in assay buffer (0.0015 mg/ml). A second rabbit antibody (0.001 ml of stock solution/6 ml of the murine monoclonal anti-β3 antibody solution) which is an anti-mouse Fc HRP antibody conjugate was added to this solution, and this mixture of murine anti-β3 antibody and rabbit anti-mouse Fc HRP antibody conjugate was incubated during the time of the receptor-inhibitor incubation. The test plates were washed four times with PBS solution which contains 0.05% Tween-20, and in each case 0.05 ml/well of the antibody mixture was pipetted into each well of the plate and incubated for 60-180 min. The plate was washed four times with PBS/0.05% Tween-20 and then developed with 0.05 ml/well of a PBS solution which contained 0.67 mg/ml of o-phenylenediamine and 0.012% of H2O2. Alternatively to this, o-phenylenediamine can be employed in a buffer (pH 5) which contains Na3PO4 and citric acid. The color development was stopped using 1 N H2SO4 (0.05 ml/well). The absorption for each well was measured at 492-405 nm and the data were evaluated by standard methods.

[2] = biological target: 293 cells cotransfected with αv and β3 subunits of the vitronectin receptor αvβ3, binding to human vitronectin (Vn) (Homo sapiens, UniProt P05106+P06756); assay: Vitronectin/293 cell test (inhibition of binding of 293 cells to human vitronectin); type: cell-based; conditions: inhibition of binding of αvβ3-expressing 293 cells to human vitronectin
Sequence of 293 cells cotransfected with αv and β3 subunits of the vitronectin receptor αvβ3, binding to human vitronectin (Vn) (P05106 whole entry): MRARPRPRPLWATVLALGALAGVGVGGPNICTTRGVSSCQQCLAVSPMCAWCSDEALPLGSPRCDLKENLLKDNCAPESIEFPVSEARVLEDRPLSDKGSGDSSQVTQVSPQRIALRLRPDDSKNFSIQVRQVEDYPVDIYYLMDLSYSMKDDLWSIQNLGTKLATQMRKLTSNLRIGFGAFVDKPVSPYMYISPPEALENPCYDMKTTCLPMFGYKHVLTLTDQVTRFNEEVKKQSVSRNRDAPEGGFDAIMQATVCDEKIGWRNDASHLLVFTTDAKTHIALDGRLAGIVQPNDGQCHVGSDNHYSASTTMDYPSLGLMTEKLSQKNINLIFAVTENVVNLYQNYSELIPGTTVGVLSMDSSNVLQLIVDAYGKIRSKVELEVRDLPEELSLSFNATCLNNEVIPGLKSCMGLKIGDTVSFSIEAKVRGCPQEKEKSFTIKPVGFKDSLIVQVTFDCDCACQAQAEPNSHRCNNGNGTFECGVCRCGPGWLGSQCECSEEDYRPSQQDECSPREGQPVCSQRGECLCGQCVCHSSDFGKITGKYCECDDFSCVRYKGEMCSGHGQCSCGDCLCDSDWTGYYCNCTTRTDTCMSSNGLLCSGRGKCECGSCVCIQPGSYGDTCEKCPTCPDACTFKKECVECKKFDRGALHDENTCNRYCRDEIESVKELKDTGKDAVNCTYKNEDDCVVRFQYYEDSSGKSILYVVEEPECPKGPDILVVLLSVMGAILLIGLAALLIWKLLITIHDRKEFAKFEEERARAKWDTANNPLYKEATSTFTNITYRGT
Sequence of 293 cells cotransfected with αv and β3 subunits of the vitronectin receptor αvβ3, binding to human vitronectin (Vn) (P06756 whole entry): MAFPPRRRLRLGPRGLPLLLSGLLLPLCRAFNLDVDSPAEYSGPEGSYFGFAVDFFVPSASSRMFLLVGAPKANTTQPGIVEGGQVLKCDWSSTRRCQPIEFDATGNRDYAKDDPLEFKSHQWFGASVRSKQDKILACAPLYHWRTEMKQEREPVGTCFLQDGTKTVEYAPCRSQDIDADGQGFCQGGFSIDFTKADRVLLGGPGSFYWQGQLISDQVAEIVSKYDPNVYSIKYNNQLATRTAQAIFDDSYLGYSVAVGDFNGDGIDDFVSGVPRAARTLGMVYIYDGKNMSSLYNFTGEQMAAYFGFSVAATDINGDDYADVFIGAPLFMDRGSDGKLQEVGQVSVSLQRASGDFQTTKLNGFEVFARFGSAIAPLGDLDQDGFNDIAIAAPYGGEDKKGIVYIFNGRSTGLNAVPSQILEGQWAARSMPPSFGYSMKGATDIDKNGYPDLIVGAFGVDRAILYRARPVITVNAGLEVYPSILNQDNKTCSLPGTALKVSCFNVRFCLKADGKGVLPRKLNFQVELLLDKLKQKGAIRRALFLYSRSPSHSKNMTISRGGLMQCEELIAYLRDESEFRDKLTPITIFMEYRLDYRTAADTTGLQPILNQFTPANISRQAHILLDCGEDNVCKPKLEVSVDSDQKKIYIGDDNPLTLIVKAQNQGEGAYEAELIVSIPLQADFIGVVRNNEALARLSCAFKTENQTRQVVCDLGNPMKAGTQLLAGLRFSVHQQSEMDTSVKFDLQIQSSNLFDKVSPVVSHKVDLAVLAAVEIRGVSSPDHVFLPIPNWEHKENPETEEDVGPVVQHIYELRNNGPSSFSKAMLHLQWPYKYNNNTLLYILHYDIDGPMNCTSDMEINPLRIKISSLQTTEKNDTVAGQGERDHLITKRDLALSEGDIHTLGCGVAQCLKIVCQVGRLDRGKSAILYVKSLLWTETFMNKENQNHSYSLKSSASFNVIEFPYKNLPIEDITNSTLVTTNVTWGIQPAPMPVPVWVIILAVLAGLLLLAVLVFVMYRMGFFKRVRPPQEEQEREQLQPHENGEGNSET
Description: 2) Vitronectin/293 Cell Test
In this test the inhibition of binding of 293 cells to human vitronectin (Vn) by the compounds of the invention is determined (the test method is abbreviated as “Vn/293 cell test” in the listing of the test results).
Purification of Human Vitronectin
Human vitronectin was isolated from human plasma and purified by affinity chromatography according to the method of Yatohgo et al., Cell Structure and Function 23 (1988) 281.
293 cells, a human embryonic kidney cell line, which were cotransfected with DNA sequences for the αv and β3 subunits of the vitronectin receptor αvβ3, were selected for a high rate of expression (>500,000 αvβ3 receptors/cell) according to the FACS method. The selected cells were cultured and sorted again by means of FACS in order to obtain a stable cell line (15 D) with expression rates >1,000,000 copies of αvβ3 per cell.
A Linbro 96-well tissue culture plate with a flat bottom was coated overnight at 4° C. with human vitronectin (0.01 mg/ml, 0.05 ml/well) in phosphate-buffered saline solution (PBS) and then blocked with 0.5% strength BSA (bovine serum albumin). Solutions of the test substances from 10^−10 mol/l to 2×10^−3 mol/l in glucose-containing DMEM medium were prepared and 0.05 ml/well of the solution were added to the plate in each case. The cells which expressed high levels of αvβ3 (for example 15 D) were suspended in glucose-containing DMEM medium and the suspension was adjusted to a content of 25,000 cells/0.05 ml of medium. 0.05 ml of this cell suspension was added to each well and the plate was incubated at 37° C. for 90 min. The plate was washed 3 times with warm PBS in order to remove unbound cells. The bound cells were lyzed in citrate buffer (25 mM, pH 5.0) which contained 0.25% Triton X-100. The hexoseamidase substrate p-nitrophenyl-N-acetyl-β-D-glucosaminide was then added and the plate was incubated at 37° C. for 90 min. The reaction was stopped with a glycine (50 mM)/EDTA (5 mM) buffer (pH 10.4) and the absorption of each well was measured at 405 to 650 nm. The data were analyzed according to standard methods.

Row | SMILES | IC50 [1] [nM] | IC50 [2] [nM]
1 | O=C(CCCCc1ccc(C[C@H](NS(=O)(=O)c2cccc3ccccc23)C(=O)O)s1)NC1=NCCCN1 [Example 1, (2S)-2-(Naphthalene-1-sulfonylamino)-3-(5-(4-(1,4,5,6-tetrahydropyrimidin-2-ylcarbamoyl)-butyl)-thiophen-2-yl)-propionic Acid] | 23 | 420
2 | O=C(CCCCc1ccc(C[C@H](NS(=O)(=O)c2ccc3ccccc3c2)C(=O)O)s1)NC1=NCCCN1 [Example 2, (2S)-2-(Naphthalene-2-sulfonylamino)-3-(5-(4-(1,4,5,6-tetrahydropyrimidin-2-ylcarbamoyl)-butyl)-thiophen-2-yl)-propionic acid] | 15 | 330
3 | O=C(CCCCc1ccc(C[C@H](NS(=O)(=O)c2ccc(Cl)cc2)C(=O)O)s1)NC1=NCCCN1 [Example 4, (2S)-2-(4-Chlorobenzenesulfonylamino)-3-(5-(4-(1,4,5,6-tetrahydropyrimidin-2-ylcarbamoyl)-butyl)-thiophen-2-yl)-propionic acid] | 12 | 850
4 | O=C(CCCCc1ccc(C[C@H](NS(=O)(=O)c2cccc(Cl)c2)C(=O)O)s1)NC1=NCCCN1 [Example 5, (2S)-2-(3-Chlorobenzenesulfonylamino)-3-(5-(4-(1,4,5,6-tetrahydropyrimidin-2-ylcarbamoyl)-butyl)-thiophen-2-yl)-propionic acid] | 15 | 420
5 | O=C(CCCCc1ccc(C[C@H](NS(=O)(=O)c2ccc(C(F)(F)F)cc2)C(=O)O)s1)NC1=NCCCN1 [Example 6, (2S)-3-(5-(4-(1,4,5,6-Tetrahydropyrimidin-2-ylcarbamoyl)-butyl)-thiophen-2-yl)-2-(4-trifluoromethylbenzenesulfonylamino)-propionic acid] | 28 | 2000
6 | O=C(CCCCc1ccc(C[C@H](NS(=O)(=O)CC(F)(F)F)C(=O)O)s1)NC1=NCCCN1 [Example 7, (2S)-3-(5-(4-(1,4,5,6-Tetrahydropyrimidin-2-ylcarbamoyl)-butyl)-thiophen-2-yl)-2-(2,2,2-trifluoroethanesulfonylamino)-propionic acid] | 11 | 400
7 | CCCS(=O)(=O)N[C@@H](Cc1ccc(CCCCC(=O)NC2=NCCCN2)s1)C(=O)O [Example 8, (2S)-2-(Propane-1-sulfonylamino)-3-(5-(4-(1,4,5,6-tetrahydropyrimidin-2-ylcarbamoyl)-butyl)-thiophen-2-yl)-propionic acid] | 60 | 1000
8 | O=C(CCC/C=C/c1ccc(C[C@H](NC(=O)OCc2ccccc2)C(=O)O)s1)NC1=NCCCN1 [Example 14, (2S)-2-Benzyloxycarbonylamino-3-(5-(5-(1,4,5,6-tetrahydropyrimidin-2-ylcarbamoyl)-pent-1-enyl)-thiophen-2-yl)-propionic acid] | 40 | 690
9 | O=C(CC/C=C/c1ccc(C[C@H](NC(=O)OCc2ccccc2)C(=O)O)s1)NC1=NCCCN1 [Example 15, (2S)-2-Benzyloxycarbonylamino-3-(5-(4-(1,4,5,6-tetrahydropyrimidin-2-ylcarbamoyl)-but-1-enyl)-thiophen-2-yl)-propionic acid] | 35 | 580

Further molecules by falling IC50 [1], results first:

Row | IC50 [1] [nM] | IC50 [2] [nM] | SMILES
10 | 97 | 210 | O=C(CCCCCc1ccc(C[C@H](NC(=O)OCc2ccccc2)C(=O)O)s1)NC1=NCCCN1 [Example 13, (2S)-2-Benzyloxycarbonylamino-3-(5-(5-(1,4,5,6-tetrahydropyrimidin-2-ylcarbamoyl)-pentyl)-thiophen-2-yl)-propionic acid]
11 | 95 | 6900 | CC(C)(C)c1ccc(S(=O)(=O)N[C@@H](Cc2ccc(CCCCC(=O)NC3=NCCCN3)s2)C(=O)O)cc1 [Example 10, (2S)-2-(4-tert-Butylbenzenesulfonylamino)-3-(5-(4-(1,4,5,6-tetrahydropyrimidin-2-ylcarbamoyl)-butyl)-thiophen-2-yl)-propionic acid]
12 | 46 | 1800 | CCCCS(=O)(=O)N[C@@H](Cc1ccc(CCCCC(=O)NC2=NCCCN2)s1)C(=O)O [Example 9, (2S)-2-(Butane-1-sulfonylamino)-3-(5-(4-(1,4,5,6-tetrahydropyrimidin-2-ylcarbamoyl)-butyl)-thiopen-2-yl)-propionic acid]
13 | 23 | 220 | O=C(CCCCc1ccc(C[C@H](NC(=O)OCC23CC4CC(CC(C4)C2)C3)C(=O)O)s1)NC1=NCCCN1 [Example 12, (2S)-2-(Adamantan-1-ylmethoxycarbonylamino)-3-(5-(4-(1,4,5,6-tetrahydropyrimidin-2-ylcarbamoyl)-butyl)-thiophen-2-yl)-propionic acid]
14 | 9.5 | 1000 | O=C(CCCCc1ccc(C[C@H](NS(=O)(=O)c2ccccc2)C(=O)O)s1)NC1=NCCCN1 [Example 3, (2S)-2-Benzenesulfonylamino-3-(5-(4-(1,4,5,6-tetrahydropyrimidin-2-ylcarbamoyl)-butyl)-thiophen-2-yl)-propionic acid]
15 | 9 | 110 | O=C(CCCCc1ccc(C[C@H](NC(=O)OCc2ccccc2)C(=O)O)s1)NC1=NCCCN1 [Example 11, (2S)-2-Benzyloxycarbonylamino-3-(5-(4-(1,4,5,6-tetrahydropyrimidin-2-ylcarbamoyl)-butyl)-thiophen-2-yl)-propionic acid]
